# Laboratory results as given in patent US20210267239A1, “Process for Sanitizing and Preserving Foodstuffs and Beverages” (LANXESS Deutschland GmbH, priority 2018, published 2021).
# Experiments:
# Type in all cases: cell-based
# [1] = tested on: Candida krusei; assay: MIC determination in RPMI-1640 growth medium (CLSI M27-A3); settings: Pichia kudriavzevii, 168 h, growth medium RPMI-1640, seeding 1000 cfu/ml, after one week, read-out: MIC (mg/l) after one week
# Procedure: (§1) After one week, a proportion of the medium was tested for the presence of microorganisms and these tests were used to determine the MIC (minimum inhibitory concentration). Individual test substances: natamycin, mycosamine Test microbe: Candida krusei Substrate: growth medium Microbial seeding per ml of substrate: 1000 cfu/ml Synergism was ascertained according to the method described in Kull, F. C. et al.; Mixtures of quaternary ammonium compounds and long-chain fatty acids as antifungal agents. Applied Microbiology, 9, 538-541, 1961. The following relationships apply: QA/Qa+QB/Qb=SI Qa=concentration of substance A which is the MIC Qb=concentration of substance B which is the MIC QA=concentration of substance A in the concentration of A/B at which microbial growth is suppressed QB=concentration of substance B in the concentration of A/B at which microbial growth is suppressed SI=synergistic index […]
# [2] = tested on: mixture of Saccharomyces cerevisiae, Zygosaccharomyces bailii, Penicillium carneum and Trichoderma virens; assay: MIC determination in contaminated iced tea, non-carbonated; settings: 168 h, mixed test microbes, 250 cfu/ml each, after one week, read-out: MIC (mg/l) after one week
# Procedure: as §1, with “mixture of Saccharomyces cerevisiae, Zygosaccharomyces bailii, Penicillium carneum and Trichoderma virens” for “Candida krusei”, “iced tea, non-carbonated” for “growth medium”, “250” for “1000”, “cfu/ml each of the test microbes listed above” for “cfu/ml”
# [3] = tested on: Candida glabrata; assay: MIC determination in RPMI-1640 growth medium (CLSI M27-A3); settings: Nakaseomyces glabratus, 168 h, growth medium RPMI-1640, seeding 1000 cfu/ml, after one week, read-out: MIC (mg/l) after one week
# Procedure: as §1, with “glabrata” for “krusei”
# [4] = tested on: Candida albicans; assay: as above; settings: 168 h, growth medium RPMI-1640, seeding 1000 cfu/ml, after one week, read-out: MIC (mg/l) after one week
# Procedure: as §1, with “of the growth medium was” for “of the medium was”, “microbe: Candida albicans Substrate: growth” for “microbe: Candida krusei Substrate: growth”
MIC [2] [mg/L],SMILES,MIC [1] [mg/L],MIC [3] [mg/L],MIC [4] [mg/L]
4,"C[C@@H]1C/C=C/C=C/C=C/C=C/[C@H](O[C@@H]2O[C@H](C)[C@@H](O)[C@H](N)[C@@H]2O)C[C@@H]2O[C@](O)(C[C@@H](O)C[C@H]3O[C@@H]3/C=C/C(=O)O1)C[C@H](O)[C@H]2C(=O)O [Natamycin, (8E,14E,16E,18E,20E)-(1R,3S,5R,7R,12R,22R,24S,25R,26S)-22-(3-amino-3,6-dideoxy-25-D-mannopyranosyloxy)-1,3,26-trihydroxy-12-methyl-10-oxo-6,11,28-trioxatricyclo[22.3.1.05,7]octacosa-8,14,16,18,20-pentaene-25-carboxylic acid]",2,1,1
0.75,"C[C@@H](O)[C@@H](O)[C@H](N)[C@H](O)C=O [Mycosamine, 3-amino-3,6-dideoxymannose]",2,0.5,32
